Results: US12304910B2, “Janus kinase (JAK) family inhibitor, preparation of same, and applications thereof” (JIANGSU VCARE PHARMATECH CO., LTD., priority 2019, dated 2025)
pIC50: −log10 of the molar value.

Key:
JAK1 = JAK1 (Homo sapiens, UniProt P23458); assay: Kinase activity test (γ33P-ATP isotopic method), JAK1; assay type: biochemical
Method: (§1) This experiment adopted a γ^33p-ATP isotopic test method to test the inhibitory effect of a compound on kinases JAK1, JAK2, JAK3 and TYK2, and obtained a half inhibitory concentration IC50 of the compound for inhibiting activity of the kinase.
(§2) 20 mM 4-hydroxyethylpiperazine ethanesulfonic acid buffer (Hepes, pH 7.5), 10 mM magnesium chloride (MgCl2), 1 mM ethylene glycol diethyl ether diamine tetraacetic acid (EGTA), 0.02% dodecyl polyethylene glycol ether (Brij35), 0.02 mg/ml bovine serum albumin (BSA), 0.1 mM sodium vanadate (Na3VO4), 2 mM dithiothreitol (DTT), and 1% dimethylsulfoxide (DMSO).
(§3) A compound is dissolved with 100% DMSO to a specific concentration, and then subjected to gradient dilution by an automatic sampling device to obtain the samples to be tested with different concentrations (DMSO solutions).
(§4) 3.1 diluting the reaction substrate with the basic reaction buffer;
(§5) 3.2 adding the kinase into the substrate solution, and gently mixing well;
(§6) 3.3 adding, by the automatic sampling system, the 100% DMSO diluted compounds with different concentrations into the kinase solution, and incubating for 20 min at room temperature; and
(§7) 3.4 adding ^33p-ATP (10 μM, 10 μCi/μl) at room temperature to initiate the kinase reaction for a duration of 2 h.
(§8) The unreacted ATP and the reaction-generated […] in the reaction were removed by an ion exchange filtering system, and then the amount of radioactivity of ^33p isotope in the substrate was detected.
(§9) According to the amount of radioactivity, the kinase activities in the systems added with the inhibitors of different concentrations were calculated, to obtain the inhibitors' effects of the compounds of different concentrations on the kinase activity; and fitting was performed with graphpad prism to obtain the inhibitory IC50 values of the compounds.

[1] = tested on: DSS induced mouse ulcerative colitis model; assay: Efficacy test in DSS induced mouse ulcerative colitis model; assay type: in vivo
From the text: Mice of 6-7 weeks old were randomly grouped, 6 mice per group. Purified water was provided ad libitum to the mice in a negative control group, and a 2% solution of dextran sulfate sodium (DSS) was provided ad libitum to the mice in other groups, for 7 consecutive days. During the modeling, medication was given according to the groups, once a day for 7 days (the treatment groups and the mouse numbers can be adjusted according to the specific situation). Within 8-10 days later, the DSS-containing water was replaced with purified water, provided ad libitum to the mice. The normal administration continued for 3 days.
From the first day of administration, the general conditions such as metal state, eating, drinking and activities of the mice were respectively observed every day, the mice were weighed every day, and the animal stools were collected, evaluated for their traits and subjected to the occult blood test. The disease activity index (DAI) of experimental animals within 1-10 days were comprehensively assessed.
Scoring was performed according to the above-mentioned standards. The disease activity index (DAI) of each mouse was obtained by summing the scores of weight loss, stool trait and occult blood condition, to evaluate the disease activity. DAI=(score of weight loss+score of stool trait+score of bloody stool)/3, ranging from 0-4.
The experimental data was processed statistically, and the data are all expressed as mean±SD or mean±SME. The SPSS13.0 software was used for statistical analysis, and the differences among the groups were compared with t test (equal variance) or t′ test (unequal variance).

JAK2 = JAK2 (Homo sapiens, UniProt O60674); assay: Kinase activity test (γ33P-ATP isotopic method), JAK2; assay type: biochemical; settings: 33P-ATP 10 μM, 2 h reaction
Chain of JAK2 (O60674 whole entry): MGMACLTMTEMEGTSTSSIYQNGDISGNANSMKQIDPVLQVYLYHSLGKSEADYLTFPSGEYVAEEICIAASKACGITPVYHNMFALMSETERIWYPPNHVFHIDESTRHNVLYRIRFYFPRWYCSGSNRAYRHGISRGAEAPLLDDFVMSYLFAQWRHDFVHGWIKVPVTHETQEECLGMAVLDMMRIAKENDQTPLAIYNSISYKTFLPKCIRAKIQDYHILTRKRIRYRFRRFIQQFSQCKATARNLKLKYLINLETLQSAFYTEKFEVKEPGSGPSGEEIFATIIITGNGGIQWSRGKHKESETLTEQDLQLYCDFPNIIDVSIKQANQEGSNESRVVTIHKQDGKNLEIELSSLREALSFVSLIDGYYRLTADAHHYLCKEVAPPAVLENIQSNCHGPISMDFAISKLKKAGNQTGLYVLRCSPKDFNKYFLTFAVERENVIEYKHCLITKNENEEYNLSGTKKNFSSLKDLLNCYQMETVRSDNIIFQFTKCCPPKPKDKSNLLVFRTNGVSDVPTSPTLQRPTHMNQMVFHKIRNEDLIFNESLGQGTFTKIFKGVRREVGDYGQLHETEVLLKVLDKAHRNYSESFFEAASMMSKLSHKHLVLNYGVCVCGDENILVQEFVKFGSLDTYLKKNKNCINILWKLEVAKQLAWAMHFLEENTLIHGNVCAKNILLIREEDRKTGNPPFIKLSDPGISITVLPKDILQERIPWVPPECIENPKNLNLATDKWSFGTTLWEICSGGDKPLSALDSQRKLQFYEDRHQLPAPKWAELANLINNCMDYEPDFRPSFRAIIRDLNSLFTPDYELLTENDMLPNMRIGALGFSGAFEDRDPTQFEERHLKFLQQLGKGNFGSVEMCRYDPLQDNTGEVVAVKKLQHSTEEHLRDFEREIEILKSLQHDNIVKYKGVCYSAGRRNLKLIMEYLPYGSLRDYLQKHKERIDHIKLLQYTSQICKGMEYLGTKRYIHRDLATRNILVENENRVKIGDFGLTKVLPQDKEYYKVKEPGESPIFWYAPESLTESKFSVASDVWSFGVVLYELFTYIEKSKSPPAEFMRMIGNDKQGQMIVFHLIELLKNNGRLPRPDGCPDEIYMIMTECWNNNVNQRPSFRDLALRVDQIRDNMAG
Method: as §1, §2, §3, §4, §5, §6, §7, §8, §9

[2] = tested on: DNBS induced rat Crohn's disease model; assay: Therapeutic activity in DNBS induced rat Crohn's disease model; assay type: in vivo; set-up: rat colon ulcer area: unit not given beside the values; settings: for colon weight-length ratio / rat colon ulcer area: 7 days, mean±SD; for colon weight-length ratio: colon weight (g)/length (cm) ratio×100, model group G2 14.6±5.1; for rat colon ulcer area: model group G2 1.54±2.00
Method: Male wistar rats of 4-5 weeks old were adaptively fed for 5 days, and two days before the experiment, randomly divided into 6 groups:
Blank control group: G1 (Normal), 4 normal rats were selected and only given with 30% ethanol, 10 mL/kg.
0.5 mL of 50 mg/mL DNBS (DNBS dissolved in 30% ethanol) was injected into the colon of rats to induce enteritis in rats, for 40 rats in total. Eight of them were selected as model group G2 (Model), and the remaining 32 rats were administrated.
Administration group: the rats with DNBS induced enteritis were administered with ABT494 and the compound of Example 2 respectively and divided into G3-G6 groups, 8 rats/group. G3: ABT494, 10 mg/kg-QD; G4: Example 2, 0.3 mg/kg-BID; G5: Example 2, 1 mg/kg-BID; and G6: Example 2, 3 mg/kg-BID.
The rats were fasted, but fed with water for 48 hours, and a 5% glucose salt solution (10 mL/kg) was used as an energy supplement for experimental animals during the fasting period, once a day. On the day of experimental modeling, the fasting rats were anesthetized with Choutet (25 mg/kg), and then 0.5 mL of 50 mg/mL DNBS was injected from the anus to left colic flexure of the rat (about 8 cm to the anus) to induce rat enteritis. All rats were kept in a […] for 15 min until they were awaken, to prevent the backflow of DNBS. From the day of the experimental modeling, medication was given for 7 days.
After the DNBS modeling, the weights of the animals were measured and recorded every day, the daily activities of the animals were observed, and the abnormalities were recorded. During the experiment, the stool state of the rats was scored every day. On day 7, the rats were anesthetized with isoflurane (3-5%), blood was taken from the orbit, and the serum was separated and stored at −80° C. All animals were euthanized by cervical vertebra dis location after suffocation from excessive CO2 inhalation. The abdomen was cut, the colorectum was take out and longitudinally dissected, and the stool trait in the colorectum was scored. The colorectum was thoroughly rinsed with ice-cold PBS and then the ulcer surface was observed. The length and weight and ulcer area of the colon were recorded, the weight-length ratio (colon weight (g)/length (cm) ratio×100) was calculated, and the overall picture was taken. All intestinal tissue was longitudinally divided into two parts, where one part was fixed with 4% neutral […] and embedded with paraffin, and the rest colon sample was cryopreserved at −80° C.
Excel and Graphapad software were used for statistical analysis, and the results were expressed as mean±SD.

Chain of JAK1 (P23458 whole entry): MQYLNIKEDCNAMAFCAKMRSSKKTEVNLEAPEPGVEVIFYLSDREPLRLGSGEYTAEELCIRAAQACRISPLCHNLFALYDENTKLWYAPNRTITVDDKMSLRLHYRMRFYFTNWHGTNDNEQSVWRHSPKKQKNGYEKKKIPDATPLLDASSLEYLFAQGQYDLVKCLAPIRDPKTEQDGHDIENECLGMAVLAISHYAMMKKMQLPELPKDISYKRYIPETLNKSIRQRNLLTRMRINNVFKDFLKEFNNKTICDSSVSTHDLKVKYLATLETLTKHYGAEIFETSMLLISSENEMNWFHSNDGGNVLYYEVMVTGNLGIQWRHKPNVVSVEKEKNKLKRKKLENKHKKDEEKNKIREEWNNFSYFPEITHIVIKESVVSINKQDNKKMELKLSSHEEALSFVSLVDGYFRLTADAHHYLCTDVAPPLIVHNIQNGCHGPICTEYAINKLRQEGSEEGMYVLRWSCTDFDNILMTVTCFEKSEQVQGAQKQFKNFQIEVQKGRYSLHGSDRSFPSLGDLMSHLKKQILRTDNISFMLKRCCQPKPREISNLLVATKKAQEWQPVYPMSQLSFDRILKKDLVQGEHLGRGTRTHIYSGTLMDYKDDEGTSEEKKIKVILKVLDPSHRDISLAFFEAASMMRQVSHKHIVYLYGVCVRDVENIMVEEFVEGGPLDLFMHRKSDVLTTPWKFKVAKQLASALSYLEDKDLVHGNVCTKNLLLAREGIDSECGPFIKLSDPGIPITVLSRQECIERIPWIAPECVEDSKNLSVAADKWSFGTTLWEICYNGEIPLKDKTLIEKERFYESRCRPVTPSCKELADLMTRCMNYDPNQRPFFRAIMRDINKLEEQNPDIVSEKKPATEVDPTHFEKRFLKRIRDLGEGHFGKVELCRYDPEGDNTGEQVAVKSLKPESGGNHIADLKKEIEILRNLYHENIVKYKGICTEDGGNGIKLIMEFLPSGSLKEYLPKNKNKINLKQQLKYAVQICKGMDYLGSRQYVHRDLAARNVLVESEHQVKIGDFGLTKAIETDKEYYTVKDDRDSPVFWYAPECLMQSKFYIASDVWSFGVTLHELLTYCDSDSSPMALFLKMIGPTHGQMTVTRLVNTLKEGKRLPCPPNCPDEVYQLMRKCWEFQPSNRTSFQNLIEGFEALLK

pIC50 (JAK1; 33P-ATP 10 μM, 2 h reaction): 9.82
pIC50 (JAK2): 8.43
Structure (SMILES): NC(=O)c1cnc2[nH]ccc2c1NN1CCC[C@H](C(=O)NCC(F)F)C1 [Example 2, (S)-4-(3-(2,2-difluoroethylcarbamoyl)piperidine-1-amino)-1H-7-azaindole-5-carboxamide]
activity in inhibiting the JAK1 kinase compared with Tofacitinib (in words) (JAK1; conclusion from Table 1): higher activity in inhibiting the JAK1 kinase than the positive drug control Tofacitinib
DAI score on day 8 ([1]; 5 mg/kg group, once a day, mouse DSS model, DAI range 0-4): 1.5
effect on DSS induced enteritis in mice (in words) ([1]; relatively low dose): significant effect in inhibiting the DSS induced enteritis in mice
colon weight-length ratio ([2]; G4, 0.3 mg/kg-BID): 10.5±3.9
rat colon ulcer area ([2]; G4, 0.3 mg/kg-BID): 0.83±1.00
colon weight-length ratio ([2]; G5, 1 mg/kg-BID): 10.0±1.9
rat colon ulcer area ([2]; G5, 1 mg/kg-BID): 0.65±1.05
colon weight-length ratio ([2]; G6, 3 mg/kg-BID): 10.5±2.0
rat colon ulcer area ([2]; G6, 3 mg/kg-BID): 0.76±1.21
effect on DNBS induced enteritis of the rats (in words) ([2]; relatively low dose): significant effect in inhibiting the DNBS induced enteritis of the rats
